This is an account of results in patent publication US20240417412A1, “HETEROCYCLIC COMPOUNDS AND METHODS OF USE” (AMGEN INC., priority 2022, published 2024).

The target in assay [1] is KRAS G12D (Homo sapiens, UniProt P01116, G12D). Description: KRAS G12D TR-FRET Assay. The conditions noted are these: His-tagged KRAS G12D, biotinylated KRPep-2d, read-out: KRAS G12D Binding IC50. How it is done:
The plate was incubated for 30 minutes at room temperature. Biotinylated KRPep-2d substrate (Amgen) was diluted to 20 nM in Assay Buffer and 2 uL was added to all wells and incubated for 1 hour at room temperature. Detection Reagent (0.4 nM LANCE Eu-W1024 Anti-6×His (Perkin Elmer AD0401), 5 nM streptavidin-d2 (Cisbio 610SADLA)) was prepared in Assay Buffer, then 4 μL was added to the plate and incubated for 1 hour at room temperature.
A general note: TR-FRET usually uses a lanthanide donor and a delayed reading to cut background.

The subject of a further assay is p-ERK (AsPC-1 cells). Description: Phospho-ERK1/2 MSD Assay. The format is cell-based. Particulars: Homo sapiens, ASPC1, 2 h, read-out: 2 h p-ERK (AsPC-1 cells), IC50 (μM), AsPC-1 cells, 2 hours compound treatment.
In assay [2] the target is KRAS G12D (Homo sapiens, UniProt P01116, C118A/G12D). The assay can be described thus: KRAS G12D Coupled Nucleotide Exchange Assay. It counts as biochemical. The conditions noted are these: GDP-bound KRAS G12D/C118A, 2 hours pre-incubation, SOS-mediated nucleotide exchange, AlphaScreen. As for the experimental part: The assay plates were then read on a PerkinElmer EnVision Multilabel Reader, using AlphaScreen® technology, and data were analyzed using a 4-parameter logistic model to calculate IC50 values.
(Bead proximity is the source of the signal in Alpha formats.)

Each structure is given as a SMILES string. Some results are limits rather than exact numbers.

Chain of KRAS G12D (Homo sapiens, UniProt P01116, C118A/G12D) (P01116 1-169 isoform P01116-2 G12D/C118A): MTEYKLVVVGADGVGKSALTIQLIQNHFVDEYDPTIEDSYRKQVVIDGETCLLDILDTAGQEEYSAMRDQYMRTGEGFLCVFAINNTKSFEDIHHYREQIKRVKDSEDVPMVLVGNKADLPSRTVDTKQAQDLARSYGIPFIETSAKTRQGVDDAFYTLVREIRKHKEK
Chain of KRAS G12D (Homo sapiens, UniProt P01116, G12D) (P01116 1-188 isoform P01116-2 G12D): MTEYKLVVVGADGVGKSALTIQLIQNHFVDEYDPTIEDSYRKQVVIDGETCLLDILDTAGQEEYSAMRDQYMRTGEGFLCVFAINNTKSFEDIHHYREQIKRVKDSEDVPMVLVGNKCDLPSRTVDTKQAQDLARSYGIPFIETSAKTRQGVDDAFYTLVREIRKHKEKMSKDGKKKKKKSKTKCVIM

Regarding `CCc1c(F)ccc2cc(O)cc(-c3ncc4c(N5CCCC6(CCOC6)C5)nc(OC[C@@]56CCCN5C[C@H](F)C6)nc4c3F)c12` (stereo partly drawn) [Example 33, 5-Ethyl-6-fluoro-4-(8-fluoro-2-(((2R,7aS)-2-fluorotetrahydro-1H-pyrrolizin-7a(5H)-yl)methoxy)-4-(2-oxa-7-azaspiro[4.5]decan-7-yl)pyrido[4,3-d]pyrimidin-7-yl)naphthalen-2-ol], the values for the IC50 on KRAS G12D [1], in the assay with p-ERK (AsPC-1 cells) and on KRAS G12D [2] were 8 nM, 0.452 µM and 12 nM, respectively.

For the compound `CCc1c(F)ccc2cc(O)cc(-c3ncc4c(N5CCC6(CC(O)C6)C5)nc(OC[C@@]56CCCN5C[C@H](F)C6)nc4c3F)c12` (stereo partly drawn) [Example 37, 6-(7-(8-Ethyl-7-fluoro-3-hydroxynaphthalen-1-yl)-8-fluoro-2-(((2R,7aS)-2-fluorotetrahydro-1H-pyrrolizin-7a(5H)-yl)methoxy)pyrido[4,3-d]pyrimidin-4-yl)-6-azaspiro[3.4]octan-2-ol], the half-inhibitory concentration (IC50) (usually the concentration at which inhibition is half-maximal) on KRAS G12D [1] came to 85 nM; in the assay with p-ERK (AsPC-1 cells) it was 2.53 µM; against KRAS G12D [2], 38 nM.

Consider `CCc1c(F)ccc2cc(O)cc(-c3ncc4c(N5CCCC6(CCS(=N)(=O)C6)C5)nc(OC[C@@]56CCCN5C[C@H](F)C6)nc4c3F)c12` (stereo partly drawn) [Example 39, 7-(7-(8-Ethyl-7-fluoro-3-hydroxynaphthalen-1-yl)-8-fluoro-2-(((2R,7aS)-2-fluorotetrahydro-1H-pyrrolizin-7a(5H)-yl)methoxy)pyrido[4,3-d]pyrimidin-4-yl)-2-imino-216-thia-7-azaspiro[4.5]decane 2-oxide], for which the figures for the half-inhibitory concentration (IC50) at KRAS G12D [1], in the assay with p-ERK (AsPC-1 cells) and on KRAS G12D [2] were 2 nM, 2.53 µM and 3 nM, respectively.

In the case of `CCc1c(F)ccc2cc(O)cc(-c3ncc4c(N5CCCC6(COC(=O)N6)C5)nc(OC[C@@]56CCCN5C[C@H](F)C6)nc4c3F)c12` (stereo partly drawn) [Example 40, 7-(7-(8-Ethyl-7-fluoro-3-hydroxynaphthalen-1-yl)-8-fluoro-2-(((2R,7aS)-2-fluorotetrahydro-1H-pyrrolizin-7a(5H)-yl)methoxy)pyrido[4,3-d]pyrimidin-4-yl)-3-oxa-1,7-diazaspiro[4.5]decan-2-one], the 50% inhibitory concentration (IC50) at KRAS G12D [1] came to 3 nM; in the assay with p-ERK (AsPC-1 cells), 4.32 µM; on KRAS G12D [2] it was 4 nM.

With `CCc1c(F)ccc2cc(O)cc(-c3ncc4c(N5CCC6(CC5)CNC(=O)O6)nc(OC[C@@]56CCCN5C[C@H](F)C6)nc4c3F)c12` [Example 41, 8-(7-(8-Ethyl-7-fluoro-3-hydroxynaphthalen-1-yl)-8-fluoro-2-(((2R,7aS)-2-fluorotetrahydro-1H-pyrrolizin-7a(5H)-yl)methoxy)pyrido[4,3-d]pyrimidin-4-yl)-1-oxa-3,8-diazaspiro[4.5]decan-2-one], the IC50 at KRAS G12D [1] is 19 nM; in the assay on p-ERK (AsPC-1 cells), over 10 µM; on KRAS G12D [2] it was 10 nM.

For `CCc1c(F)ccc2cc(O)cc(-c3ncc4c(N5CCC6(CC5)COC(=O)N6)nc(OC[C@@]56CCCN5C[C@H](F)C6)nc4c3F)c12` [Example 42, 8-(7-(8-Ethyl-7-fluoro-3-hydroxynaphthalen-1-yl)-8-fluoro-2-(((2R,7aS)-2-fluorotetrahydro-1H-pyrrolizin-7a(5H)-yl)methoxy)pyrido[4,3-d]pyrimidin-4-yl)-3-oxa-1,8-diazaspiro[4.5]decan-2-one], the IC50 at KRAS G12D [1] is 7 nM; in the assay with p-ERK (AsPC-1 cells) it was 3.18 µM; on KRAS G12D [2], 5 nM.

On to `CCc1c(F)ccc2cc(O)cc(-c3ncc4c(N5CCCC6(C5)CC6(F)F)nc(OC[C@@]56CCCN5C[C@H](F)C6)nc4c3F)c12` (stereo partly drawn) [Example 44, 4-(4-(1,1-Difluoro-5-azaspiro[2.5]octan-5-yl)-8-fluoro-2-(((2R,7aS)-2-fluorotetrahydro-1H-pyrrolizin-7a(5H)-yl)methoxy)pyrido[4,3-d]pyrimidin-7-yl)-5-ethyl-6-fluoronaphthalen-2-ol], for which the half-maximal inhibitory concentration (IC50) turned out to be 3 nM at KRAS G12D [1], 0.252 µM in the assay with p-ERK (AsPC-1 cells) and 3 nM against KRAS G12D [2].

Turning to `CCc1c(F)ccc2cc(O)cc(-c3ncc4c(N5CCOCC6(CC(=O)N6)C5)nc(OC[C@@]56CCCN5C[C@H](F)C6)nc4c3F)c12` (stereo partly drawn) [Example 53, 9-(7-(8-Ethyl-7-fluoro-3-hydroxynaphthalen-1-yl)-8-fluoro-2-(((2R,7aS)-2-fluorotetrahydro-1H-pyrrolizin-7a(5H)-yl)methoxy)pyrido[4,3-d]pyrimidin-4-yl)-6-oxa-1,9-diazaspiro[3.6]decan-2-one], the values for the IC50 on KRAS G12D [1], in the assay on p-ERK (AsPC-1 cells) and at KRAS G12D [2] were 2 nM, 0.182 µM and 2 nM, respectively.
